Reference: PubChem BioAssay AID588530 (Broad Institute, 2011)
The source made the active and inactive calls.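 The calls were made as follows: active = Alamar Blue signal falls with dose, AC50 no more than twice the top valid dose; inconclusive = flat curve near half-strength inhibition, or poor fit; inactive = the rest.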

Columns and labels:
[1] = system: C. albicans CaCi-17 growth, Alamar Blue fluorescence, 48 h; experiment: antifungal potency against resistant Candida albicans – CaCi-17 isolate, Alamar Blue, cherry-pick retest, confirmation (AID 588530)
[2] = as above; conditions: C. albicans CaCi-17 growth, Alamar Blue fluorescence, 48 h; at 26 µM (top of the series)

SMILES	AC50 [1]	activity change, negative = inhibition [2]
O=C(N/N=C/c1cc2c3c(c1O)CCCN3CCC2)c1ccccc1O	4.28 µM	–
O=Nc1c(-c2cccc([N+](=O)[O-])c2)nc2ncccn12	4.77 µM	–
O=c1ccc(N=Nc2ccccc2)ccc1O	4.73 µM	–
CCN(CC)S(=O)(=O)c1cc(OC)ccc1N=Nc1ccc(O)c2ncccc12	15.3 µM	–
O=C(Oc1c(Cl)cc(Cl)c2cccnc12)c1cccs1	3.29 µM	–
CCOC(=O)N1C(=O)C2(CCCCC2)N(c2ccc(C)cc2)C1=S	1.3 µM	–
Oc1c(CN2CCN(c3ccccc3)CC2)cc(Br)c2cccnc12	> 52 µM (inactive)	–
COc1cccc(/C=N/Nc2ncnc3scc(-c4ccccc4)c23)c1O	12.5 µM	–
COc1cccc(N=Nc2ccc3cccnc3c2O)c1	5.37 µM	–
CCCCCCC[n+]1ccc(-c2cc[n+](CCCCCCC)cc2)cc1	13.4 µM	–
O=C(N/N=C/c1c(O)ccc2ccccc12)c1cccc(C(F)(F)F)c1	> 52 µM (inactive)	–
C=CCNC(=S)N/N=C(\C)c1ccccn1	8.96 µM	–
O=Cc1ccc(O)c2ncccc12	13.7 µM	–
Cc1ccc(C(=O)c2coc3c2C(=O)C(=O)c2ccccc2-3)cc1	–	7.03% (inactive)
CCCCC(=O)NC(c1ccc(N(CC)CC)cc1)c1ccc2cccnc2c1O (centres undefined)	3.73 µM	–
Oc1ccc(N=Nc2ccc3c(c2)OCCO3)c2cccnc12	10.8 µM	–
CN1CCN(C(c2ccc(C(F)(F)F)cc2)c2ccc3cccnc3c2O)CC1 (centres undefined)	8.86 µM	–

SMILES	AC50 [1]	activity change, negative = inhibition [2]
Oc1c(C(Nc2nc3ccccc3s2)c2ccco2)ccc2cccnc12 (centres undefined)	3.97 µM	–
Oc1c(C(Nc2nccs2)c2ccc(C(F)(F)F)cc2)ccc2cccnc12 (centres undefined)	4.11 µM	–
O=[N+]([O-])c1cc(CN2CCN(c3ccccc3)CC2)c(O)c2ncccc12	10.6 µM	–
CN1CCN(C(c2ccc(C(F)(F)F)cc2)c2cc(Cl)c3cccnc3c2O)CC1 (centres undefined)	6.34 µM	–
Oc1ccc(N=Nc2ccc3c(c2)OCCO3)c2ncccc12	> 52 µM (inactive)	–
Oc1c(CN2CCN(c3ccc(F)cc3)CC2)cc(Cl)c2cccnc12	7.42 µM	–
O=[N+]([O-])c1ccc(O)c(/C=N/Nc2ccc(Cl)nn2)c1	–	-23.4% (inactive)
Cc1cc(NC(c2ccc(Cl)cc2)c2ccc3cccnc3c2O)no1 (centres undefined)	2.49 µM	–
C/C(=N\NC(=O)c1cc2ccccc2cc1O)c1ccccn1	5.02 µM	–
C(C#CCCCCCCCCC[n+]1ccccc1)#CCCCCCCCCC[n+]1ccccc1	1.52 µM	–
O=C(Oc1c(Cl)cc(Cl)c2cccnc12)c1ccco1	1.71 µM	–
CCN1/C(=C/C=C/c2oc3ccc(-c4ccccc4)cc3[n+]2CC)Oc2ccc(-c3ccccc3)cc21	2.43 µM	–
Oc1c(C(c2ccc(Cl)cc2)N2CCCC2)cc(Cl)c2cccnc12 (centres undefined)	7.68 µM	–
CCOc1ccc(N=Nc2ccc(O)c3ncccc23)cc1	11.6 µM	–
CCCCC(=O)NC(c1ccco1)c1cc(Cl)c2cccnc2c1O (centres undefined)	24.9 µM	–
COc1ccc(C)cc1N=Nc1ccc(O)c2ncccc12	2.99 µM	–
COc1cccc(N=Nc2ccc(O)c3ncccc23)c1	3.91 µM	–
